Source: US6600063B1, “Derivatives of phenyl 4-aminosalicylate and method of making the same” (priority 2000, dated 2003)
≈ marks a conversion by molar mass, not a printed value.

Tests used:
[1] = system: Mycobacterium tuberculosis H37Rv (ATCC 27294); assay: Microplate Alamar Blue Assay (MABA), primary screen and MIC against M. tuberculosis H37Rv; assay type: cell-based; set-up: MIC H37Rv: unit not given beside the values; details: for MIC: Mycobacterium tuberculosis, M. tuberculosis H37Rv; for MIC / % Inhibition: ASSAY ALAMAR; for % Inhibition: primary screen at 12.5 or 6.25 ug/ml
[2] = system: Mycobacterium tuberculosis H37Rv (ATCC 27294); assay: BACTEC 460 radiometric system, primary screen and MIC against M. tuberculosis H37Rv; assay type: cell-based; details: for MIC: Mycobacterium tuberculosis; for % Inhibition: primary screen at 12.5 or 6.25 ug/ml
[3] = system: M. tuberculosis Erdman (ATCC 35801) in mouse bone marrow macrophages; assay: Killing of M. tuberculosis Erdman in monolayers of mouse bone marrow macrophages (EC90, EC99); assay type: cell-based, Mycobacterium tuberculosis
[4] = system: M. tuberculosis Erdman; assay: MIC in the MABA against drug-sensitive strain Erdman; assay type: cell-based; details: Mycobacterium tuberculosis, read-out: MIC ERDMA (ug/ml)
[5] = system: M.tuberculosis (H37Rv); details: compared with 4-aminosalicylic acid; cited from earlier work
[6] = primary screen, BACTEC, M. tuberculosis H37Rv, read-out: MIC

CCC(=O)Nc1ccc(C(=O)Oc2ccccc2)c(OC(=O)CC)c1 [SAMPLE ID 138392]
MIC [1]: 0.39 µg/mL (≈ 1.14 µM)
% Inhibition [1]: 94%

O=C(Oc1ccccc1)c1ccc(NC(=S)Nc2ccccc2)cc1O [SAMPLE ID 131326]
MIC ([2]; Table 4, assay not given, read-out: MIC): 0.2 µg/mL (≈ 0.549 µM)
MIC ([2]; actual MIC, ASSAY BACTEC, M. tuberculosis H37Rv, read-out: MIC): 0.2 µg/mL (≈ 0.549 µM)
MIC [2, 6]: < 12.5 µg/mL
% Inhibition ([2]; BACTEC, M. tuberculosis H37Rv): 100%
MIC H37Rv ([1]; Table 9 strain panel, drug-sensitive strain H37Rv): 1.56
EC99 ([3]; 99% reduction in colony forming units at 7 days, bactericidal activity): 0.92 µg/mL
EC90 ([3]; Mycobacterium tuberculosis, Bone marrow macrophage, 168 h, 90% reduction in colony forming units at 7 days, bacteriostatic activity): 0.203 µg/mL (≈ 0.557 µM)
MIC [4]: 0.2 µg/mL (≈ 0.549 µM)

O=C(Oc1ccccc1)c1ccc(/C=N/c2ccccc2[N+](=O)[O-])cc1O [SAMPLE ID 139235]
MIC [1]: 0.025 µg/mL (≈ 0.069 µM)
% Inhibition [1]: 97%

O=Cc1ccc(/C=N/c2ccc(C(=O)Oc3ccccc3)c(O)c2)cc1 [SAMPLE ID 130069]
MIC [2, 6]: < 12.5 µg/mL
% Inhibition ([2]; BACTEC, M. tuberculosis H37Rv): 99%

O=C(Oc1ccccc1)c1ccc(/N=C/c2ccc([N+](=O)[O-])cc2)cc1O [SAMPLE ID 133652]
MIC ([2]; actual MIC, ASSAY BACTEC, M. tuberculosis H37Rv): 0.1 µg/mL (≈ 0.276 µM)
MIC ([2]; primary screen, BACTEC, M. tuberculosis H37Rv): < 12.5 µg/mL
% Inhibition ([2]; BACTEC, M. tuberculosis H37Rv): 97%

Nc1ccc(C(=O)Oc2ccccc2)c(O)c1 [phenyl 4-aminosalicylate]
destruction of the virulent strain of M.tuberculosis (H37Rv) [5]: even better than 4-aminosalicylic acid

CO[C@H]1/C=C/O[C@@]2(C)Oc3c(C)c(O)c4c(O)c(c(/C=N/N5CCN(C)CC5)c(O)c4c3C2=O)NC(=O)/C(C)=C\C=C\[C@H](C)[C@H](O)[C@@H](C)[C@@H](O)[C@@H](C)[C@H](OC(C)=O)[C@@H]1C [RMP, rifampin, reference compound]
MIC ([2]; reference drug in the COMMENT column of the primary screen, read-out: MIC of RMP vs. M. tuberculosis): 0.25 µg/mL
